Results taken from patent US11925650B2, “Antibacterial chemical compound, its manufacturing method and its use thereof” (National Taiwan University, priority 2022, dated 2024).
Where two headings read alike, the source gives them in different places.

Key:
S. Typhimurium 14028 = experiment: Anti-intracellular Salmonella activity in infected RAW264.7 cells (HCA); format: cell-based, Salmonella Typhimurium
RAW264.7 = experiment: Cytotoxicity in RAW264.7 cells (HCA, MTT cell viability assay); format: cell-based; conditions: Mus musculus, RAW264.7, read-out: IC50 (μM) RAW264.7
Protocol: The cell viability was evaluated using HCA and an MTT cell viability assay, and the data are expressed as a percentage relative to the untreated control and are presented as the mean±SD (n=3 per group).

[1] = system: intracellular Salmonella in RAW264.7 cells; experiment: Intracellular Salmonella viability with autophagy inhibitor 3-MA (HCA); format: cell-based, S. typhimurium
Protocol: FIG. 7. Infected RAW264.7 cells treated with 10 mM of 3-MA for 1 h followed by 0.5 μM of SW14 or mock (DMSO) treatment for 24 hours.
Autophagy was originally characterized as a cellular response to stress, but has been considered to be a defense mechanism to combat host cell infection by intracellular Salmonella. Therefore, to evaluated the role of autophagy in SW14's anti-intracellular Salmonella activity, infected cells are treated with 3-MA, an autophagy inhibitor to block cellular autophagy then followed by treatment with SW14 for 24 h. […] Compared to mock-treated cells, the viability of intracellular Salmonella in cells treated with SW14 or the combination of 3-MA and SW14 were 45% and 36.8%, respectively.

S. typhimurium = experiment: Bacterial growth in medium (OD600); format: cell-based; conditions: LB medium and macrophage culture medium, concentrations up to 64 μM, 24 hours
Protocol: FIG. 6. The growth of S. typhimurium in LB medium, cell culture medium (CCM), or LPM medium containing 0, 0.5, and 64 μM of SW14 monitored by measuring the OD600 of each bacterial culture at designated times for a total of 24 h.

[2] = system: ROS levels in infected macrophages; experiment: ROS production in Salmonella-infected RAW264.7 cells (H2DCFDA); format: cell-based; conditions: 1 hour; SW14 at concentrations up to 8 μM
Protocol: FIG. 10. […] The viabilities of intracellular Salmonella in RAW264.7 cells treated with SW14 with/without the ROS scavengers N-acetyl-cysteine (NAC; 10 mM) or glutathione (GSH; 10 mM) are assessed using HCA. […] Salmonella-infected RAW264.7 cells are loaded with 25 μM H2DCFDA for 45 min followed by treatment with SW14 or PMA at various concentrations. […] S. Typhimurium ATCC 14028 is treated with H2O2 alone or in combination with SW14 (0.5 μM) in (C) LB or (D) LPM for 1 hour followed by evaluation by the CFU assay to determine bacterial viability.

[3] = system: S. Typhimurium ATCC 14028; experiment: Bacterial susceptibility to H2O2 (CFU assay); format: cell-based, Salmonella Typhimurium; conditions: 1 hour
Protocol: (§1) FIG. 10. SW14 sensitizing outer membrane-compromised S. typhimurium to oxidative stress. (A) ROS scavengers reversed the suppressive effects of SW14 on intracellular S. typhimurium. The viabilities of intracellular Salmonella in RAW264.7 cells treated with SW14 with/without the ROS scavengers N-acetyl-cysteine (NAC; 10 mM) or glutathione (GSH; 10 mM) are assessed using HCA. […] Salmonella-infected RAW264.7 cells are loaded with 25 μM H2DCFDA for 45 min followed by treatment with SW14 or PMA at various concentrations. […] S. Typhimurium ATCC 14028 is treated with H2O2 alone or in combination with SW14 (0.5 μM) in (C) LB or (D) LPM for 1 hour followed by evaluation by the CFU assay to determine bacterial viability.
Next, the effects of SW14 on bacterial resistance to ROS are investigated.

[4] = system: intracellular Salmonella in RAW264.7 cells; experiment: Intracellular Salmonella with cefixime or ciprofloxacin alone or combined with SW14 (HCA); format: cell-based; conditions: 0.5 μM SW14 combined with CFM or CIP, 24 hours
Protocol: FIG. 4. Salmonella-infected RAW264.7 cells treated with (A) 0.25, 0.5, 1, 2, and 4 mg/L of cefixime (CFM) and (B) 0.03, 0.06, 0.125, 0.25, and 0.5 mg/L of ciprofloxacin (CIP) alone or in combination with 0.5 μM SW14. After 24 hours, the relative numbers of intracellular bacteria were determined using HCA and the results are expressed as relative fluorescence units (RFU).

[5] = system: multidrug-resistant S. typhimurium NL08.10 and 0911R; conditions: SW14 0.3-10 μM with gentamicin, 24 h
Protocol: (§2) FIG. 5. RAW264.7 cells infected with (A) multidrug-resistant strains of S. Typhimurium ATCC 14028, NL08., and 100911R or (B) ciprofloxacin-resistant strains of S. typhimurium ATCC 14028, SA10, and SB10 followed by treatment with 0, 0.3, 1, 3, and 10 μM of SW14 combined with […] gentamicin for 24 h. The relative numbers of intracellular bacteria were determined using HCA and the results are expressed as relative fluorescence units (RFU).

[6] = system: ciprofloxacin-resistant strain SA10 and SB10; conditions: SA10 and SB10, SW14 0.3-10 μM with gentamicin, 24 h
Protocol: as §2
Then extended the investigation to S. typhimurium isolates with resistance to ciprofloxacin.

[7] = system: S. Typhimurium within macrophages; experiment: Intracellular Salmonella viability with ROS scavengers (HCA); format: cell-based, Salmonella Typhimurium; conditions: NAC 10 mM or GSH 10 mM
Protocol: as §1
Oxidative stress is another innate defense system in host cells that controls intracellular Salmonella infection. In FIG. 10(A), the suppressive effects of SW14 against S. Typhimurium within macrophages are reversed in the presence of two ROS scavengers, N-acetyl cysteine (NAC) and glutathione (GSH).

[8] = system: intracellular Salmonella in Atg7 knockdown RAW264.7 cells; experiment: Intracellular bacterial survival in RAW264.7 cells with Atg7 knockdown (HCA); format: cell-based, S. typhimurium; conditions: shRNA Atg7 knockdown RAW264.7 cells, SW14 0.3 and 1 μM, 24 hours
Description: FIG. 8. RAW264.7 cells transfected with a plasmid to express shRNA targeting Atg7 (shATG7). The levels of the Atg7 protein in the stable transfectants as determined by immunoblotting. Bands for Atg7 were quantified by densitometry and normalized to those of β-actin. Percentages represent the relative expression levels of Atg7 in the shATG7 transfectants compared to the vector transfectants.
FIG. 9. Intracellular bacterial survival in SW14-treated RAW264.7 cells with shRNA-mediated knockdown of Atg7 expression. RAW264.7 cells were transfected with the empty vector (Vec) and infected with S. typhimurium followed by treatment with 0, 0.3, and 1 μM of SW14 and […] gentamicin for 24 hours. The numbers of surviving intracellular bacteria are determined by HCA and the results are expressed as a percentage of the control group. Data shown are the means; error bars represent the SD (n=3). ns: non-significant, P>0.05; *P<0.05 for the differences between the drug-treated groups and their respective control groups.

[9] = system: intracellular Salmonella in RAW264.7 cells; experiment: Intracellular bacteria survival, colony-forming unit assay; conditions: sub-micromolar concentrations, gentamicin 20 mg/L, 24 h
Protocol: The intracellular bacteria survival was assessed using HCA and a CFU assay, and the data are expressed as a percentage relative to the untreated control and are presented as the mean±SD (n=3 per group).

SMILES: Clc1ccc2c(c1)C(NCCN1CCNCC1)=Nc1ccccc1O2 [SW14, 2-chloro-N-(2-(piperazin-1-yl)ethyl)dibenzo[b,f][1,4]oxazepin-11-amine]
- Selectivity ratio (IC50/EC50) (S. Typhimurium 14028; IC50 RAW264.7 / EC50 S. Typhimurium 14028): 80.6
- EC50 (S. Typhimurium 14028; Salmonella enterica, TYPHIMURIUM, RAW264.7, read-out: EC50 (μM) S. Typhimurium 14028, intracellular Salmonella in infected RAW264.7 cells): 0.5 µM
- EC50 (S. Typhimurium 14028; read-out: EC50 (μM) S. Typhimurium 14028, intracellular Salmonella in infected RAW264.7 cells): 0.4 µM
- IC50 (RAW264.7): 28.7 µM
- viability of intracellular Salmonella compared to mock-treated cells, combination of 3-MA and SW14 ([1]; 10 mM 3-MA 1 h, then 0.5 μM SW14 24 hours): 36.8%
- viability at 0.5 µM ([1]; Salmonella, RAW264.7, 24 h, read-out: viability of intracellular Salmonella compared to mock-treated cells): 45%
- inhibitory effect on growth of bacteria in medium (S. typhimurium): did not show significant inhibitory effects
- ROS levels (H2DCFDA signal) in infected macrophages [2]: did not observe any significant change
- susceptibility of S. typhimurium to H2O2 after SW14 treatment, LB broth ([3]; 0.5 μM SW14, LB broth): not in LB broth
- susceptibility of S. typhimurium to H2O2 after SW14 treatment, LPM medium ([3]; 0.5 μM SW14, LPM medium): significantly increasing
- enhancement of antibiotic suppression of intracellular Salmonella [4]: can enhance the suppression caused by these antibiotics
- intracellular replication of multidrug-resistant S. typhimurium isolates [5]: remained susceptible
- intracellular proliferation of ciprofloxacin-resistant isolates [6]: still highly sensitive
- suppressive effects against S. Typhimurium within macrophages in presence of ROS scavengers [7]: reversed
- susceptibility of intracellular Salmonella to SW14 after knockdown of Atg7 [8]: more susceptible
- effect on viability of intracellular Salmonella (CFU assay) [9]: potent suppressive effect
